Laboratory results published in US8178547B2, “Heterocyclic antiviral compounds” (Roche Palo Alto LLC, priority 2008, dated 2012).

Legend:
[1] = target: T1, HCV polymerase (NS5B570n-Con1) (Hepatitis C virus genotype 1b, UniProt Q9WMX2); test: HCV NS5B RNA polymerase activity; assay type: biochemical, HCV Con1 strain
T1 construct: a 21 amino acid C-terminal deletion of full-length HCV polymerase; made in house; host or cells: E. coli BL21(DE3) pLysS, plasmid pET17b
Protocol: The enzymatic activity of HCV polymerase (NS5B570n-Con1) was measured as the incorporation of radiolabeled nucleotide monophosphates into acid insoluble RNA products. Unincorporated radiolabeled substrate was removed by filtration and scintillant was added to the washed and dried filter plate containing radiolabeled RNA product. The amount of RNA product generated by NS5B570n-Con1 at the end of the reaction was directly proportional to the amount of light emitted by the scintillant.
The HCV polymerase used in the enzymatic activity assay is a 21 amino acid C-terminal deletion of full-length HCV polymerase derived from HCV Con1 strain, genotype 1b (GenBank accession number AJ242654) (NS5B570n-Con1). The NS5B570n-Con1 was sub-cloned downstream to the T7 promoter of the plasmid expression construct pET17b and transformed into E. coli strain BL21(DE3) pLysS for protein expression. A single colony was used to start an innoculum for a 10 L culture in LB media supplemented with 100 μg/mL ampicillin at 37° C. Protein expression was induced by the addition of 0.25 mM isopropyl-β-D-thiogalactopyranoside (IPTG) when the optical density of the culture at […] was 0.8. Induction of protein expression was carried out at 30° C. for 16 h after which the cells were harvested by centrifugation. NS5B570n-Con1 was purified to homogeneity using a three-column purification protocol including subsequent column chromatography on Ni-NTA, SP-Sepharose HP and Superdex 75 resins.
[…] TRK-412; specific activity: 30 to 60 Ci/mmol;), 1 μM each ATP, CTP, and GTP, 40 mM Tris-HCl pH 8.0, 40 mM NaCl, 4 mM DTT (dithiothreitol), 4 mM MgCl2, 5 μl of compound serial diluted in DMSO, and nuclease-free water to a final reaction volume of 50 μl. Enzymatic reactions in the presence of poly A RNA template (see section 0004) contained 20 nM Poly A:oligo(rU)16 premixed (see section 0004), 20 nM NS5B570n-Con1 enzyme, 1 μCi of tritiated UTP (Perkin Elmer catalog no. TRK-412; specific activity: 30 to 60 Ci/mmol), 40 mM Tris-HCl pH 8.0, 40 mM NaCl, 4 mM DTT (dithiothreitol), 4 mM MgCl2, 5 μl of compound serial diluted in DMSO, and nuclease-free water to a final reaction volume of 50 μl. Reaction mixtures were assembled in 96-well filter plates (cat #MADVN0B, Millipore Co.) and incubated for 2 h at 30° C. Reactions were stopped by addition of 10% final (v/v) trichloroacetic acid and incubated for 40 min at 4° C. Reactions were filtered, washed with 8 reaction volumes of 10% (v/v) trichloroacetic acetic acid, 4 reaction volumes of 70% (v/v) ethanol, air dried, and 25 μl of scintillant (Microscint 20, Perkin-Elmer) was added to each reaction well.
Two RNA templates were used to assay compounds described herein. The cIRES RNA template was 377 nucleotide long and consisted of a partial complementary sequence (36 nucleotides) of the core protein, followed by 341 nucleotide of the complementary sequence of the internal ribosome entry site. The poly A RNA template (GE Amersham catalog number 27-4110) was a homopolymeric RNA pre-annealed to a oligo(rU)16 primer at a molar ratio of 3-to-1 (primer-template).
The amount of light emitted from the scintillant was converted to counts per minute (CPM) on a Topcount® plate reader (Perkin-Elmer, Energy Range: Low, Efficiency Mode: Normal, Count Time: 1 min, Background Subtract: none, Cross talk reduction: Off).
Data was analyzed in Excel® (Microsoft) and ActivityBase® (Idbs®). The reaction in the absence of enzyme was used to determine the background signal, which was subtracted from the enzymatic reactions. […] All data was expressed as a percentage of the positive control. The compound concentration at which the enzyme-catalyzed rate of RNA synthesis was reduced by 50%

[2] = test system: HCV replicon cells (2209-23), genotype 1b replicon; test: HCV replicon assay (Renilla luciferase reporter); assay type: cell-based, HCV genotype 1b; conditions: Hepatitis C virus, 72 h; 2209-23 cells, three days incubation
in vitro = conditions: human
HCV = conditions: cited from earlier work
[3] = NS5B pol inhibition IC50, as in Example 32 (20 nM RNA template)
[4] = NS5B pol inhibition IC50, cell values marked ^2, as in Example 32 except RNA template concentration 3 nM (footnote 3)

| Structure (SMILES) | IC50 [1, 3] | IC50 [2] | melting point | also measured |
| --- | --- | --- | --- | --- |
| COc1c(CCc2ccc(NS(C)(=O)=O)cc2)cc(-c2ncc[nH]c2=O)cc1C(C)(C)C [Compound I-1, N-(4-{2-[3-tert-Butyl-2-methoxy-5-(3-oxo-3,4-dihydro-pyrazin-2-yl)-phenyl]-ethyl}-phenyl)-methanesulfonamide] | 15 nM | 112 nM | 238 to 240 °C | CC50 (in vitro): 24200 nM |
| COc1c(NC(=O)c2ccc(NS(C)(=O)=O)cc2)cc(-c2ncc[nH]c2=O)cc1C(C)(C)C [Compound I-4, N-[3-tert-Butyl-2-methoxy-5-(3-oxo-3,4-dihydro-pyrazin-2-yl)-phenyl]-4-methanesulfonylamino-benzamide] | 6 nM | 347 nM | – | – |
| COc1c(/C=C/c2ccc(NS(C)(=O)=O)cc2C(=O)O)cc(-c2ccn[nH]c2=O)cc1C(C)(C)C [Compound I-9, 2-{(E)-2-[3-tert-Butyl-2-methoxy-5-(3-oxo-2,3-dihydro-pyridazin-4-yl)-phenyl]-vinyl}-5-methanesulfonylamino-benzoic acid] | 0.2 nM | 71 nM | – | – |
| COc1c(/C=C/c2ccc(NS(C)(=O)=O)cc2)cc(-c2ccn[nH]c2=O)cc1C(C)(C)C [Compound I-13, N-(4-{(E)-2-[3-tert-Butyl-2-methoxy-5-(3-oxo-2,3-dihydro-pyridazin-4-yl)-phenyl]-vinyl}-phenyl)-methanesulfonamide] | 4 nM | 1 nM | – | – |
| CC1(C)COc2c(-c3ccn[nH]c3=O)cc(/C=C/c3ccc(NS(C)(=O)=O)cc3)cc21 [Compound I-21, N-(4-{(E)-2-[3,3-Dimethyl-7-(3-oxo-2,3-dihydro-pyridazin-4-yl)-2,3-dihydro-benzofuran-5-yl]-vinyl}-phenyl)-methanesulfonamide] | – | 113 nM | 255 to 257 °C | IC50 [1, 4]: 2 nM |
| COc1c(/C=C/c2ccc(NS(C)(=O)=O)cc2)cc(-c2cnc[nH]c2=O)cc1C(C)(C)C [Compound I-22, N-(4-{(E)-2-[3-tert-Butyl-2-methoxy-5-(6-oxo-1,6-dihydro-pyrimidin-5-yl)-phenyl]-vinyl}-phenyl)-methanesulfonamide] | – | – | – | IC50 [1, 4]: 2 nM; CC50 (in vitro): 23200 nM |
| COC(=O)c1cc(NS(C)(=O)=O)ccc1/C=C/c1cc(-c2cnc(OCc3ccccc3)[nH]c2=O)cc(C(C)(C)C)c1OC [Compound I-24] | – | 40 nM | – | IC50 [1, 4]: 11 nM; CC50 (in vitro): 4700 nM |
| COc1c(/C=C/c2ccc(NS(C)(=O)=O)cc2)cc(-c2c[nH]c(=O)[nH]c2=O)c2c1C(C)(C)CO2 [Compound I-28, N-(4-{(E)-2-[7-(2,4-dioxo-1,2,3,4-tetrahydro-pyrimidin-5-yl)-4-methoxy-3,3-dimethyl-2,3-dihydro-benzofuran-5-yl]-vinyl}-phenyl)-methanesulfonamide] | 0.6 nM | – | > 300 °C | – |
| COc1c(/C=C/c2ccc(NS(C)(=O)=O)cc2)cc(-c2c[nH]c(=O)[nH]c2=O)cc1C1(C(F)F)CC1 [Compound I-30, N-(4-{(E)-2-[3-(1-Difluoromethyl-cyclopropyl)-5-(2,4-dioxo-1,2,3,4-tetrahydro-pyrimidin-5-yl)-2-methoxy-phenyl]-vinyl}-phenyl)-methanesulfonamide] | 0.3 nM | – | 292 to 295 °C | – |
| COc1c(/C=C/c2ccc(NS(C)(=O)=O)cc2)cc(-c2ncc[nH]c2=O)cc1C1(C(F)F)CC1 [Compound I-31, N-(4-{(E)-2-[3-(1-Difluoromethyl-cyclopropyl)-2-methoxy-5-(3-oxo-3,4-dihydro-pyrazin-2-yl)-phenyl]-vinyl}-phenyl)-methanesulfonamide] | 0.3 nM | – | 241 to 243 °C | – |
| COc1c(/C=C/c2ccc(NS(C)(=O)=O)cc2)cc(-c2cnc(Cl)[nH]c2=O)cc1C(C)(C)C [Compound I-32, N-(4-{(E)-2-[3-tert-Butyl-5-(2-chloro-6-oxo-1,6-dihydro-pyrimidin-5-yl)-2-methoxy-phenyl]-vinyl}-phenyl)-methanesulfonamide] | 5 nM | – | > 300 °C | – |
| COc1c(/C=C/c2ccc(NS(C)(=O)=O)cc2)cc(-c2cnc(N(C)C)[nH]c2=O)cc1C(C)(C)C [Compound I-33, N-(4-{(E)-2-[3-tert-Butyl-5-(2-dimethylamino-6-oxo-1,6-dihydro-pyrimidin-5-yl)-2-methoxy-phenyl]-vinyl}-phenyl)-methanesulfonamide] | 2.6 nM | – | > 300 °C | – |
| COc1ncc(-c2cc(/C=C/c3ccc(NS(C)(=O)=O)cc3)c(OC)c(C(C)(C)C)c2)c(=O)[nH]1 [Compound I-34, N-(4-{(E)-2-[3-tert-Butyl-2-methoxy-5-(2-methoxy-6-oxo-1,6-dihydro-pyrimidin-5-yl)-phenyl]-vinyl}-phenyl) methanesulfonamide] | 0.6 nM | – | 296 to 299 °C | – |
| COc1c(/C=C/c2ccc(NS(C)(=O)=O)cc2)cc(-c2c[nH]c(=O)[nH]c2=O)cc1C(F)(F)F [Compound I-35, N-(4-{(E)-2-[5-(2,4-Dioxo-1,2,3,4-tetrahydro-pyrimidin-5-yl)-2-methoxy-3-trifluoromethyl-phenyl]-vinyl}-phenyl)-methanesulfonamide] | 0.5 nM | – | 255 to 258 °C | – |
| COCc1cc(NS(C)(=O)=O)ccc1/C=C/c1cc(-c2c[nH]c(=O)[nH]c2=O)cc(C(C)(C)C)c1OC [Compound I-40, N-(4-{(E)-2-[3-tert-Butyl-5-(2,4-dioxo-1,2,3,4-tetrahydro-pyrimidin-5-yl)-2-methoxy-phenyl]-vinyl}-3-methoxymethyl-phenyl)-methanesulfonamide] | 2.8 nM | – | 172 to 175 °C | – |
| COc1c(/C=C/c2ccc(NS(C)(=O)=O)cc2)cc(-c2c[nH]c(=O)[nH]c2=O)cc1OC(F)(F)F [Compound I-42, N-(4-{(E)-2-[5-(2,4-Dioxo-1,2,3,4-tetrahydro-pyrimidin-5-yl)-2-methoxy-3-trifluoromethoxy-phenyl]-vinyl}-phenyl)-methanesulfonamide] | 6.7 nM | – | 202 to 205 °C | – |
| NC(=O)c1ncn([C@@H]2O[C@H](CO)[C@@H](O)[C@H]2O)n1 [ribavirin, 1-((2R,3R,4S,5R)-3,4-Dihydroxy-5-hydroxymethyl-tetrahydro-furan-2-yl)-1H[1,2,4]triazole-3-carboxylic acid amide] | – | – | – | serum levels of HCV-RNA (HCV; monotherapy / sole treatment): does not lower serum levels of HCV-RNA; patients with serum amino transferase levels reduced to normal (HCV; monotherapy): 40% |
